Results published in ChEMBL document CHEMBL1124481, “2-Haloaporphines as potent dopamine agonists” (J Med Chem, 1989).

What was measured:
[1] = system: D(2) dopamine receptor (Sus scrofa); test: Compound was evaluated for the ability to displace [3H]-spiperone at Dopamine receptor D2 in porcine anterior pituitary gland as low affinity state
[2] = system: D(2) dopamine receptor (Sus scrofa); test: Proportion of high affinity state of Dopamine receptor D2 measured by compound ability to displace [3H]spiperone from porcine anterior pituitary membranes

CN1CCc2cc(Br)cc3c2[C@H]1Cc1ccc(O)c(O)c1-3
D-2 [1]: 49%
D-2 [2]: 62%

CN1CCc2cc(N)cc3c2[C@H]1Cc1ccc(O)c(O)c1-3
D-2 [1]: 38%
D-2 [2]: 62%
